Reference: patent publication US6939854B2, “Peptide inhibitors of hepatitis C virus NS3 protease” (priority 2000, dated 2005)

molecular target: T1, Human neutrophil elastase (Homo sapiens, UniProt P08246); assay: Inhibitory selectivity of HCV NS3 protease over elastase (human neutrophil elastase assay); format: biochemical; details: IC50 (elastase) divided by IC50 (HCV NS3)
T1 construct: purchased ART Biochemicals, Athens, Ga
T1 sequence (P08246 30-267): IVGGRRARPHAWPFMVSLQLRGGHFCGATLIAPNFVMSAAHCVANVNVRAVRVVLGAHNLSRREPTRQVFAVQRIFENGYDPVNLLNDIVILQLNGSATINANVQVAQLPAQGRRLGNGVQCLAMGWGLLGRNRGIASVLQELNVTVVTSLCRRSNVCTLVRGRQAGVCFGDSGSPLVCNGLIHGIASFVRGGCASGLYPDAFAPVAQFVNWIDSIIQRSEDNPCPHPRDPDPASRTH
Procedure: Selectivity of HCV NS3 over elastase can be calculated by dividing IC50 (elastase) over IC50 (HCV NS3). Similarily, selectivity of HCV NS3 over chymotrypsin can be calculated by dividing IC50 (chymotrypsin) over IC50 (HCV NS3).
Human neutrophil elastase was obtained from ART Biochemicals, Athens, Ga. Stock solutions of lyophilized enzyme (1 mg/ml) were prepared in PBS buffer containing 10% glycerol and stored at −20 ° C. Human neutrophil elastase was assayed with the Meo-Suc-Ala-Ala-Pro-Val-p-nitroanilide (Sigma) as a substrate (C. Kettner and A. Shenvi, 1984). The hydrolysis of substrate was monitored at 405 nm on a Hewlett-Packard spectrophotometer.

| Molecule | Selectivity of HCV NS3 vs. elastase |
| --- | --- |
| CC(C)[C@H](NC(=O)c1cnccn1)C(=O)N[C@H](C(=O)N1C[C@H](OCc2ccccc2)C[C@H]1C(=O)N[C@@H](CCc1ccc(C(F)(F)F)cc1)B1OC2CC3CC(C3(C)C)C2(C)O1)C(C)C (stereo partly drawn) [Example 34, (2-pyrazinecarbonyl)-Val-Val-Hyp(OBzl)-(1R)-1-amino-3-(4-trifluoromethyl)phenylpropylboronic acid (+)-pinanediol ester] | 7 |
| H-Asp-Glu-Val-Val-Pro-(1R)-1-amino-3-(1,1′-biphenyl)-4-ylpropylboronic acid (+)-pinanediol ester [Example 11] | >10 |
| H-Asp-Glu-Val-Val-Pro-(1R)-1-amino-3-(3-methyl)phenylpropylboronic acid (+)-pinanediol ester [Example 9] | >10 |
| H-Asp-Glu-Val-Val-Pro-(1R)-1-amino-3-(4-bromo)phenylpropylboronic acid (+)-pinanediol ester [Example 23] | >10 |
| H-Asp-Glu-Val-Val-Pro-(1R)-1-amino-3-(4-chloro)phenylpropylboronic acid (+)-pinanediol ester [Example 22] | >10 |
| H-Asp-Glu-Val-Val-Pro-(1R)-1-amino-3-(4-cyclohexyl)phenylpropylboronic acid (+)-pinanediol ester [Example 19] | >10 |
| H-Asp-Glu-Val-Val-Pro-(1R)-1-amino-3-(4-fluoro)phenylpropylboronic acid (+)-pinanediol ester [Example 16] | >10 |
| H-Asp-Glu-Val-Val-Pro-(1R)-1-amino-3-(4-hydroxy)phenylpropylboronic acid (+)-pinanediol ester [Example 27] | >10 |
| H-Asp-Glu-Val-Val-Pro-(1R)-1-amino-3-(4-isopropyl)phenylpropylboronic acid (+)-pinanediol ester [Example 18] | >10 |
| H-Asp-Glu-Val-Val-Pro-(1R)-1-amino-3-(4-methoxy)phenylpropylboronic acid (+)-pinanediol ester [Example 21] | >10 |
| H-Asp-Glu-Val-Val-Pro-(1R)-1-amino-3-(4-methyl)phenylpropylboronic acid (+)-pinanediol ester [Example 10] | >10 |
| H-Asp-Glu-Val-Val-Pro-(1R)-1-amino-3-(4-phenoxy)phenylpropylboronic acid (+)-pinanediol ester [Example 17] | >10 |
| H-Asp-Glu-Val-Val-Pro-(1R)-1-amino-3-(4-tert-butyl)phenylpropylboronic acid (+)-pinanediol ester [Example 20] | >10 |
| H-Asp-Glu-Val-Val-Pro-(1R)-1-amino-3-(4-trifluoromethyl)phenylpropylboronic acid (+)-pinanediol ester [Example 14] | >10 |
| H-Asp-Glu-Val-Val-Pro-(1R)-1-amino-3-phenylpropylboronic acid (+)-pinanediol ester [Example 3] | >10 |
| H-Asp-Glu-Val-Val-Pro-(1R)-1-amino-5-methylhexylboronic acid (+)-pinanediol ester [Example 36] | >10 |
| H-Asp-Glu-Val-Val-Pro-(1R)-1-amino-5-phenylpentylboronic acid (+)-pinanediol ester [Example 5] | 9 |
